{"source": "patent EP4512396A1", "about": "“TARGETED COVALENT INHIBITORS FOR CARBONIC ANHYDRASES” (Vilnius University, priority 2023, dated 2025)", "key": {"CAIII [1]": {"target": "T1, CAIII (Homo sapiens, UniProt P07451)", "T1 sequence (P07451 whole entry)": "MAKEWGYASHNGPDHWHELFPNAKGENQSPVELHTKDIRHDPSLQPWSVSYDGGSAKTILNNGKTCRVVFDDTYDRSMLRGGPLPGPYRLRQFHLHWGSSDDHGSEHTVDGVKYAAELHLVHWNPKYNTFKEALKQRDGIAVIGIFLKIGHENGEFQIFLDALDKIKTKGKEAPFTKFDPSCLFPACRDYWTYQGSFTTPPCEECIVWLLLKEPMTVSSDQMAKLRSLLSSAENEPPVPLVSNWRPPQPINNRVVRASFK", "test": "fluorescent thermal shift assay (FTSA)", "format": "binding"}, "CAVI": {"target": "CAVI (Homo sapiens, UniProt P23280)", "sequence (P23280 21-290 limits assumed)": "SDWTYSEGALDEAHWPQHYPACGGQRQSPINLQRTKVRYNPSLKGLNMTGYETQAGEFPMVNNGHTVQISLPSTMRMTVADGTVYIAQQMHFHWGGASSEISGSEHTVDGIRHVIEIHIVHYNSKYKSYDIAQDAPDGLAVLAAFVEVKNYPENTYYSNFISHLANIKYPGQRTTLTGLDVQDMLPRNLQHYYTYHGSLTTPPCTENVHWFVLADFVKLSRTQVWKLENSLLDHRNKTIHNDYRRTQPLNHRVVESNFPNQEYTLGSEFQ", "test": "fluorescent thermal shift assay (FTSA)", "format": "binding", "settings": "FTSA at 37 °C and pH 7.0, read-out: Kd_app"}, "CA VA": {"target": "CA VA (Homo sapiens, UniProt P35218)", "sequence (P35218 39-305)": "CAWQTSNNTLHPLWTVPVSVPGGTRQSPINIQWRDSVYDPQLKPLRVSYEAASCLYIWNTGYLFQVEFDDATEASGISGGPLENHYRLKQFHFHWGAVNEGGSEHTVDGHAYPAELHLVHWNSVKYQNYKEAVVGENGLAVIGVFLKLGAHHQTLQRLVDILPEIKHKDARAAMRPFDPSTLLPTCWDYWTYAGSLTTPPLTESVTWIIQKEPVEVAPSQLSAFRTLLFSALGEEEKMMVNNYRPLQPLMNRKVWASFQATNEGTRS", "settings": "pH 7"}, "CA XIV": {"target": "CA XIV (Homo sapiens, UniProt Q9ULX7)", "sequence (Q9ULX7 16-337)": "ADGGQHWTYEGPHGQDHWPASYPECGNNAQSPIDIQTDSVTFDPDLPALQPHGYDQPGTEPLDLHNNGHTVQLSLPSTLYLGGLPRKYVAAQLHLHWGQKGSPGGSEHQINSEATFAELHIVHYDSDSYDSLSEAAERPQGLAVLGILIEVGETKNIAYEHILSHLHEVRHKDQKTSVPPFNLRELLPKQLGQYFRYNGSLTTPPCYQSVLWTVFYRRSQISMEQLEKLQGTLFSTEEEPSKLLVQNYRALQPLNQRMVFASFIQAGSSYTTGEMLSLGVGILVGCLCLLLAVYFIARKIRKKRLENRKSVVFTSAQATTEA", "test": "fluorescent thermal shift assay (FTSA)", "format": "binding", "settings": "FTSA at 37 °C and pH 7.0, read-out: Kd_app"}, "CAXIII": {"target": "CAXIII (Homo sapiens, UniProt Q8N1Q1)", "sequence (Q8N1Q1 whole entry)": "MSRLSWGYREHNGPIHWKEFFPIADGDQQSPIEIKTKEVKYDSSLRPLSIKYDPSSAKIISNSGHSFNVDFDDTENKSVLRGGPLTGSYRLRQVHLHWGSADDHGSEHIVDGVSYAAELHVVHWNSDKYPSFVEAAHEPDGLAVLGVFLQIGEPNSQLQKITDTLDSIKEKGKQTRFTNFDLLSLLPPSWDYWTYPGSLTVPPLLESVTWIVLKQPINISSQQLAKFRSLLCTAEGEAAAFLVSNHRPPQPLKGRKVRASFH", "test": "fluorescent thermal shift assay (FTSA)", "format": "binding", "settings": "FTSA at 37 °C and pH 7.0, read-out: Kd_app"}, "CA IV": {"target": "CA IV (Homo sapiens, UniProt P22748)", "sequence (P22748 19-284)": "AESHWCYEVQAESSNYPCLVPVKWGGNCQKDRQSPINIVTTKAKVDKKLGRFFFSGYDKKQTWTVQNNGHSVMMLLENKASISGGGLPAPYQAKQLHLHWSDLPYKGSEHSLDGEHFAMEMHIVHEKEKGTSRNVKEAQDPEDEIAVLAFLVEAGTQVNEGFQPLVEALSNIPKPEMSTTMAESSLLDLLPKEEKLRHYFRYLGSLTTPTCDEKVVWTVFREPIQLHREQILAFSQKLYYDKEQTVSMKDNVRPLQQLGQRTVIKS", "test": "biochemical"}, "CA VB": {"target": "CA VB (Homo sapiens, UniProt Q9Y2D0)", "sequence (Q9Y2D0 34-317)": "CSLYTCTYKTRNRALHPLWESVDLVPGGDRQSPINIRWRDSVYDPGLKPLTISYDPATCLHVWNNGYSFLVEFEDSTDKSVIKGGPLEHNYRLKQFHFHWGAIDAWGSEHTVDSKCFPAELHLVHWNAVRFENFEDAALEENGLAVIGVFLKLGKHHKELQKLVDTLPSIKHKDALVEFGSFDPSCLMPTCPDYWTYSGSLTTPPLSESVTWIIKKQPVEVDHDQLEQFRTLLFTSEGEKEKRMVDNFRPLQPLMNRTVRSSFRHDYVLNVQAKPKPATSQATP", "test": "fluorescent thermal shift assay (FTSA)", "format": "binding", "settings": "FTSA at 37 °C and pH 7.0, read-out: Kd_app"}, "CAXII": {"target": "CAXII (Homo sapiens, UniProt O43570)", "sequence (O43570 25-354)": "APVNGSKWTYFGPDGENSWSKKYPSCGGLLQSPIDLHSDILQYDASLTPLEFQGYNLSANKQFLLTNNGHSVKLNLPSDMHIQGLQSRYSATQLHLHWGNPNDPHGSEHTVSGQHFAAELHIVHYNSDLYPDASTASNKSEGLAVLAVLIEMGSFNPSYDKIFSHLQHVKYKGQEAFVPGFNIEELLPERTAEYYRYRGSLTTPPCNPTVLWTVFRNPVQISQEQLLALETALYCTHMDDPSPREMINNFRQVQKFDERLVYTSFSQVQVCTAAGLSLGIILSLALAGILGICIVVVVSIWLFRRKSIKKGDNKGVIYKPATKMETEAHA", "test": "fluorescent thermal shift assay (FTSA)", "format": "binding", "settings": "FTSA at 37 °C and pH 7.0, read-out: Kd_app"}, "CAVII": {"target": "CAVII (Homo sapiens, UniProt P43166)", "sequence (P43166 whole entry)": "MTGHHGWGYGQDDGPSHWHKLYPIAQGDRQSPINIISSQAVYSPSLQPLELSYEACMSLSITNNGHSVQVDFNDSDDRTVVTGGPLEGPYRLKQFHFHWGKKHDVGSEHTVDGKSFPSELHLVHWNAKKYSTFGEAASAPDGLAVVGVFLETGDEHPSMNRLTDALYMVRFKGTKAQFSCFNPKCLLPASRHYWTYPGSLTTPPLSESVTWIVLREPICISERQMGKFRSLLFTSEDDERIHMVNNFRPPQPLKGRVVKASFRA", "test": "fluorescent thermal shift assay (FTSA)", "format": "binding", "settings": "FTSA at 37 °C and pH 7.0, read-out: Kd_app"}, "CAIX": {"test_system": "CAIX", "test": "stopped-flow CO2 hydration assay before and after dialysis (irreversible enzyme inactivation)", "format": "biochemical, human", "settings": "for catalytic activity of CAIX after 32 hours of dialysis: […] CAIX incubated 2 h with 15 µM AV19-37 or 100 µM AV19-36, dialyzed in Tris buffer pH 7"}, "CAIII [2]": {"target": "T1, CAIII", "test": "Q-TOF mass spectrometry of covalent binding", "settings": "CAIII in the presence of ligand"}}}
{"molecule": "NS(=O)(=O)c1c(F)c(F)c(S(=O)(=O)CCOC(=O)Cc2ccccc2)c(F)c1F", "note": "[AV21-25, 2-((2,3,5,6-tetrafluoro-4-sulfamoylphenyl)sulfonyl)ethyl 2-phenylacetate]", "values": [{"measurement": "Kd", "setting": "CAIII [1]", "value": 18000, "unit": "nM"}, {"measurement": "Kd", "setting": "CAVI", "value": 0.36, "unit": "nM"}, {"measurement": "Kd", "setting": "CA VA", "value": 2.5, "unit": "nM"}, {"measurement": "Kd", "setting": "CA XIV", "value": 0.28, "unit": "nM"}, {"measurement": "Kd", "setting": "CAXIII", "value": 0.012, "unit": "nM"}, {"measurement": "Kd", "setting": "CA IV", "value": 45, "unit": "nM"}, {"measurement": "Kd", "setting": "CA VB", "value": 0.017, "unit": "nM"}, {"measurement": "Kd", "setting": "CAXII", "value": 0.072, "unit": "nM"}, {"measurement": "Kd", "setting": "CAVII", "value": 0.83, "unit": "nM"}]}
{"molecule": "CC(=O)OCCSc1c(F)c(F)c(S(N)(=O)=O)c(F)c1F", "note": "[AV19-36, 2-((2,3,5,6-tetrafluoro-4-sulfamoylphenyl)thio)ethyl acetate]", "values": [{"measurement": "catalytic activity of CAIX after 32 hours of dialysis", "setting": "CAIX", "value": "partially restored its catalytic activity"}]}
{"molecule": "CC(=O)OCCS(=O)(=O)c1c(F)c(F)c(S(N)(=O)=O)c(F)c1NC1CCCCCCC1", "note": "[AV19-37, 2-((2-(cyclooctylamino)-3,5,6-trifluoro-4-sulfamoylphenyl)sulfonyl)ethyl acetate]", "values": [{"measurement": "catalytic activity of CAIX after 32 hours of dialysis", "setting": "CAIX", "value": "not restored"}, {"measurement": "catalytic activity of CAIX after 2 hours of incubation with compound", "setting": "CAIX; […] CAIX, 15 µM AV19-37, CO2 hydration, 25 °C, pH 7.5", "value": "lost its catalytic activity"}, {"measurement": "covalent modification by MS", "setting": "CAIII [2]", "value": "did not show a covalent modification"}]}
